Experimental data taken from ChEMBL document CHEMBL1138618, “NMDA receptor affinities of 1,2-diphenylethylamine and 1-(1,2-diphenylethyl)piperidine enantiomers and of related compounds” (Bioorg Med Chem, 2009).

tested on: Glutamate NMDA receptor; assay: Displacement of [3H]MK801 from NMDA receptor in rat brain neuronal membrane; assay type: cell membranes; conditions: not given; call rule not given here

Compound	Ki
COc1ccc2c(c1)C13CCCC[C@@H]1C(C2)NCC3 (single isomer, unassigned)	Not Active

same assay, conditions: read-out: Ki

Compound	Ki [µM]
NCC(c1ccccc1)c1ccccc1	145
COc1ccc2c(c1)[C@]13CCCC[C@@H]1[C@H](C2)NCC3	1.7
C[C@@H](N)c1ccccc1	659
C[C@H](N)c1ccccc1	622
N[C@H](c1ccccc1)[C@H](N)c1ccccc1	4.12
N[C@@H](c1ccccc1)[C@H](O)c1ccccc1	142
N[C@H](CC1CCCCC1)C1CCCCC1	138
C[C@](N)(Cc1ccccc1)c1ccccc1	0.79
N[C@@H](Cc1ccccc1)c1ccccc1	0.7
C[C@@](N)(Cc1ccccc1)c1ccccc1	8.08
N[C@H](c1ccccc1)[C@@H](O)c1ccccc1	15.7
c1ccc(C[C@H](c2ccccc2)N2CCCCC2)cc1	5.25
N[C@H](Cc1ccccn1)c1ccccc1	84
c1ccc(C[C@@H](c2ccccc2)N2CCCCC2)cc1	0.12
N[C@]1(c2ccccc2Cl)CCCCC1=O	4.18
N[C@H](Cc1ccccc1)c1ccccc1	25.1

Compound	Ki [µM]
N[C@@H](c1ccccc1)[C@@H](N)c1ccccc1	51
N[C@@]1(c2ccccc2Cl)CCCCC1=O	55
CN[C@@]1(c2ccccc2Cl)CCCCC1=O	5.68
COC(=O)[C@@H](N)c1ccccc1	1980
COC(=O)[C@H](N)c1ccccc1	1370
N[C@@H](CC1CCCCC1)C1CCCCC1	271
N[C@H]1C[C@@H]1c1ccccc1 [(+)-TRANYLCYPROMINE]	269
NC(c1ccccc1)c1ccccc1 [AMINODIPHENYLMETHANE]	64
NCc1ccccc1 [BENZYLAMINE]	1060
C[C@H](N)Cc1ccccc1 [DEXTROAMPHETAMINE]	300
CN[C@]1(c2ccccc2Cl)CCCCC1=O [ESKETAMINE]	0.96
N[C@@H](Cc1ccccn1)c1ccccc1 [LANICEMINE]	14
C[C@@H](N)Cc1ccccc1 [LEVAMFETAMINE]	625
c1ccc(C2(N3CCCCC3)CCCCC2)cc1 [PHENCYCLIDINE]	0.27
NCCc1ccccc1 [PHENETHYLAMINE]	753
N[C@@H]1C[C@H]1c1ccccc1.N[C@H]1C[C@@H]1c1ccccc1 [TRANYLCYPROMINE]	544
